{
  "source": "patent US20180206499A1",
  "about": "“METHOD OF IMPROVING PLANT HEALTH AND ROOTING OF PLANTS” (Bayer CropScience LP, priority 2017, published 2018)",
  "type_in_all_cases": "in vivo",
  "key": {"[1]": {"system": "Virginia pine (P. virginiana)", "test": "Pinus virginiana seed pot test, soil sprayed with indaziflam composition", "settings": "Esplanade 200SC soil spray; for root weight: untreated root approx. 0.05 grams; for shoot weight: untreated shoot approx. 0.11 grams", "protocol": "Virginia pine (P. virginiana) seeds were soaked in water for 24 hours and then placed in cold storage in a punctured bag for four weeks.\n(§1) 20 seeds were placed in pots on soil surface and topdressed with one cup of sandy loam soil, about ⅛″ to ¼″ deep. The pots were irrigated and allowed to settle for 24 hours.\n(§2) The soil was sprayed with a commercially available composition comprising indaziflam (commercial name Esplanade 200SC) using a single nozzle with a compressed CO2 backpack set at 32 psi for 25 gallons per acre. Overhead irrigation was set for twice daily."}, "Loblolly pine (P. taeda)": {"system": "Loblolly pine (P. taeda)", "test": "Pinus taeda seed pot test, soil sprayed with indaziflam composition", "settings": "Esplanade 200SC soil spray; for root weight: untreated root approx. 0.06 grams; for shoot weight: untreated shoot approx. 0.19 grams", "protocol": "Loblolly pine (P. taeda) seeds were soaked in water for 24 hours and then placed in cold storage in a punctured bag for four weeks.\nas §1, §2"}, "[2]": {"system": "Shortleaf pine (P. echinata)", "test": "Pinus echinata seed pot test, soil sprayed with indaziflam composition", "settings": "soil spray; for root weight: untreated root approx. 0.05 grams; for shoot weight: untreated shoot approx. 0.10 grams", "protocol": "Shortleaf pine (P. echinata) seeds were soaked in water for 24 hours and then placed in cold storage in a punctured bag for four weeks.\nas §1\nThe soil was sprayed with a commercially available composition comprising indaziflam (commercial name […]) using a single nozzle with a compressed CO2 backpack set at 32 psi for 25 gallons per acre. Overhead irrigation was set for twice daily."}},
  "data": [
    {"smiles": "Cc1ccc2c(c1)[C@H](Nc1nc(N)nc(C(C)F)n1)[C@@H](C)C2", "note": "(mixture of isomers) [indaziflam, N2[(1R,2S)-2,3-dihydro-2,6-dimethyl-1H-inden-1-yl]-6-[(1RS)-1-fluoroethyl]-1,3,5-triazine-2,4-diamine]", "values": [
      {"measurement": "root weight", "setting": "[1]; 50 g indaziflam per hectare", "value": "approximately 0.14 grams"},
      {"measurement": "shoot weight", "setting": "[1]; 50 g indaziflam per hectare", "value": "approximately 0.23 grams"},
      {"measurement": "root weight", "setting": "[1]; 71.4 g indaziflam per hectare", "value": "approximately 0.27 grams"},
      {"measurement": "shoot weight", "setting": "[1]; 71.4 g indaziflam per hectare", "value": "approximately 0.41 grams"},
      {"measurement": "root weight", "setting": "[1]; 100 g indaziflam per hectare", "value": "approximately 0.22 grams"},
      {"measurement": "root weight", "setting": "Loblolly pine (P. taeda); 50 g indaziflam per hectare", "value": "approximately 0.15 grams"},
      {"measurement": "shoot weight", "setting": "Loblolly pine (P. taeda); 50 g indaziflam per hectare", "value": "approximately 0.30 grams"},
      {"measurement": "root weight", "setting": "Loblolly pine (P. taeda); 71.4 g indaziflam per hectare", "value": "approximately 0.25 grams"},
      {"measurement": "shoot weight", "setting": "Loblolly pine (P. taeda); 71.4 g indaziflam per hectare", "value": "approximately 0.50 grams"},
      {"measurement": "root weight", "setting": "Loblolly pine (P. taeda); 100 g indaziflam per hectare", "value": "approximately 0.14 grams"},
      {"measurement": "shoot weight", "setting": "Loblolly pine (P. taeda); 100 g indaziflam per hectare", "value": "approximately 0.22 grams"},
      {"measurement": "root weight", "setting": "[2]; 50 g indaziflam per hectare", "value": "approximately 0.13 grams"},
      {"measurement": "shoot weight", "setting": "[2]; 50 g indaziflam per hectare", "value": "approximately 0.34 grams"},
      {"measurement": "root weight", "setting": "[2]; 71.4 g indaziflam per hectare", "value": "approximately 0.27 grams"},
      {"measurement": "shoot weight", "setting": "[2]; 71.4 g indaziflam per hectare", "value": "approximately 0.40 grams"},
      {"measurement": "root weight", "setting": "[2]; 100 g indaziflam per hectare", "value": "approximately 0.22 grams"},
      {"measurement": "shoot weight", "setting": "[2]; 100 g indaziflam per hectare", "value": "approximately 0.24 grams"}
    ]}
  ]
}
